Like-named read-outs stand apart in the source and are kept apart here.
How the values were obtained:
[1] = acute toxicity, intravenous administration; conditions: mouse, in vivo, souris, voie intraveineuse, limits (53,8 - 59,5), read-out: DL50 (the source's name)
Experimental: (§1) La toxicité a été déterminée chez la souris. En solution dans le Tween et après administration par voie orale le COR37 05C entraine 0 % de mortalité à 500 mg/kg, 40 % à 750 et 40 % à 1000; le COR37 06C entraine 0 % de mortalité à 100 mg/kg, 10 % à 200, 10 % à 250, 90 % à 375, 100 % à 500 (DL50 = 294 mg/kg (261-332); les COR37 09C, COR37 49C et COR37 50C entrainent 0 % de mortalité à 300 mg/kg. En solution dans le Tween et après administration par voie intrapéritonéale le COR37 05C entraine 0 % de
Par voie intraveineuse le COR37 05C présente une DL50 de 56,6 mg/kg (53,8 - 59,5).

[2] = acute toxicity, oral administration, solution in Tween; conditions: mouse, in vivo, souris, voie orale; for mortality: solution dans le Tween, read-out: mortalité
Experimental: as §1

[3] = acute toxicity, intraperitoneal administration, solution in Tween; type: in vivo; conditions: mouse, in vivo, ip, souris, voie intrapéritonéale, solution dans le Tween, read-out: mortalité
[4] = tested on: souris soumise à une anesthésie chloroformique profonde; assay: antiarrhythmic activity, mouse under deep chloroform anaesthesia; type: in vivo; conditions: ip, read-out: dose active (activité antiarythmique)
Experimental: L'activité antiarythmique a été déterminée sur plusieurs modèles expérimentaux. Dans le modèle de la souris soumise à une anesthésie chloroformique profonde le COR37 05C et le COR37 06C présentent après administration intrapéritonéale une activité antiarythmique dès la dose de 25 mg/kg; le COR37 50C est actif sur ce même modèle à 100 mg/kg. Le propranolol est actif dans les mêmes conditions à la dose de 40 mg/kg et la quinidine à la dose de 100 mg/kg.

[5] = tested on: oreillette isolée de cobaye stimulée électriquement; assay: antiarrhythmic activity in vitro, electrically stimulated isolated guinea pig atrium; type: cell-based; conditions: read-out: Ci30
From the text: In vitro dans le modèle de l'oreillette isolée de cobaye stimulée électriquement le COR37 05C et le COR37 06C sont actifs avec des Ci30 de respectivement 6,22 (4,37-8,86) 10^-6 M/1 et 7,26.10^-6 (4,68.10^-6-1,12.10^-5) M/1 contre 10^-5 M/1 pour la procaïne, 4.10^-6 M/1 pour la quinidine et 4,5.10^-6 M/l pour le propranolol.

[6] = tested on: arythmies induites par l'aconitine; assay: aconitine-induced arrhythmias in the rat; type: in vivo; conditions: for pourcentage d'animaux ne présentant pas de fibrilloflutters: voie orale
Experimental: Ces produits ont été testés dans le modèle des arythmies induites par l'aconitine chez le rat. Les résultats sont exprimés par le pourcentage d'augmentation de la quantité d'aconitine provoquant l'apparition d'extrasystoles (E), de fibrilloflutters (F), de tachycardies (T) et de morts (M). Administrés par voie intraveineuse 1 mn avant la perfusion d'aconitine, le COR37 05C entraine à 10 mg/kg 78 % (E), 87 % (T) et 83 % (M) d'activité et le COR37 06C à 5 mg/kg entraine 45 % (E), 39 % (T) et 79 % (M) d'activité. Administrés par voie orale 45 mn avant la perfusion d'aconitine à 100 mg/kg, le COR37 05C entraine 83 % (E), 99 % (T), 43 % (F) et 107 % (M) d'activité et le COR37 06C 25 % (E), 32 % (T), 29 % (F) et 105 % (M) d'activité. De plus le pourcentage d'animaux ne présentant pas de fibrilloflutters après administration de 100 mg/kg de COR37 05C et COR37 )6C par voie orale est respectivement de 70 et 60 %.

[7] = tested on: cornée de cobaye; assay: local anaesthetic activity, guinea pig cornea with tactile stimulus; type: in vivo; conditions: concentration de 0,5 %
From the text: L'activité anesthésique locale a été déterminée dans le test de la cornée de cobaye soumise à un stimulus tactile. Le COR37 06C employé à la concentration de 0,5 % est actif pendant 30 mn.

[8] = tested on: plasma riche en plaquettes (PRP) de lapin; assay: platelet aggregation in vitro induced by bovine collagen in rabbit PRP; type: cell-based; conditions: 1 microg/ml, 0,05 ml de collagène bovin, read-out: inhibition de l'agrégation plaquettaire
Experimental: (§2) L'activité antiagrégante plaquettaire a été déterminée in vitro. Quand l'agrégation est induite par 0,05 ml d'une préparation standardisée de collagène bovin dans un plasma riche en plaquettes (PRP) de lapin, le COR37 06C entraine 100 % d'inhibition à 1 microg/ml alors que l'aspirine dans les mêmes conditions est active à 10 microg/ml et l'indométacine à 0,5 microg/ml. Dans le modèle de l'agrégation plaquettaire induite par […] d'ADP dans un PRP de lapin, à 100 microg/ml, le COR37 09C entraine 79 % d'activité, le COR37 50C entraine 80 % d'activité et l'adénosine 64 %.

[9] = tested on: PRP de lapin; assay: platelet aggregation in vitro induced by ADP in rabbit PRP; type: cell-based; conditions: Oryctolagus cuniculus, 100 microg/ml, d'ADP, read-out: activité (agrégation plaquettaire induite par ADP)
Experimental: as §2

[10] = molecular target: T1, Hl (Cavia porcellus, UniProt P31389); assay: anti-H1 antihistaminic activity in vitro, guinea pig ileum; type: cell-based; conditions: 25 microg/ml; iléon de cobaye; read-out: inhibition des contractions induites par l'histamine
T1 construct: in vitro sur iléon de cobaye; from tissue; host or cells: guinea pig ileum
T1 sequence (P31389 whole entry): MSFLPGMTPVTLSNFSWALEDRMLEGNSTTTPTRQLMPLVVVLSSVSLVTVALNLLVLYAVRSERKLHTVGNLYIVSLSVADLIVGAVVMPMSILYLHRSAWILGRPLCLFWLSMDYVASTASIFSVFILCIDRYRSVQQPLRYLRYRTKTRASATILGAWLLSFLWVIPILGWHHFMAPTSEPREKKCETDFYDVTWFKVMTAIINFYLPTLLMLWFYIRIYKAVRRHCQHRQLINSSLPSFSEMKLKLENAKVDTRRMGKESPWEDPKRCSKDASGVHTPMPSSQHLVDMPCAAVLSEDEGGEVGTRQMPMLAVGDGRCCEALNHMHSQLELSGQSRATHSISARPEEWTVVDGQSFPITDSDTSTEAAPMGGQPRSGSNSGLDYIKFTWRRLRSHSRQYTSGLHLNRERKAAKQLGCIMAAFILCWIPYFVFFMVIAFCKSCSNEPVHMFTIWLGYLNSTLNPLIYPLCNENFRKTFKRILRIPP
From the text: L'activité antihistaminique antiHl a été mise en évidence in vitro sur iléon de cobaye. Le COR37 49C employé à la concentration de 25 microg/ml inhibe à 80 % les contractions induites par l'histamine.

[11] = tested on: souris; assay: acute toxicity, intraperitoneal administration, solution in Tween; type: in vivo; conditions: voie intrapéritonéale, 200 mg/kg, solution dans le Tween
[12] = tested on: oreillette gauche de cobaye; assay: calcium-antagonist activity in vitro, electrically stimulated guinea pig left atrium in low-calcium Tyrode; type: cell-based; conditions: 100 Microg/ml; 150 battements/mn, Tyrode pauvre en calcium (0,6mM), addition de 0,6 mM de calcium
Experimental: L'activité anticalcique a été déterminée in vitro sur oreillette gauche de cobaye stimulée électriquement à 150 battements/mn dans une solution de Tyrode pauvre en calcium (0,6mM).

[13] = tested on: rat en surcharge hydrique; assay: diuretic activity, water-loaded rat; type: in vivo; conditions: dose orale de 20 mg/kg, fold factor
Experimental: L'activité diurétique a été déterminée chez le rat. Ainsi le COR37 49C administré au rat en surcharge hydrique à la dose orale de 20 mg/kg multiplie par 2,2 l'excrétion urinaire de sodium.

[14] = tested on: souris rendue hypercholestérolémique; assay: hypolipidaemic activity, hypercholesterolaemic mouse (cholesterol and cholic acid diet, 7 days); type: in vivo; conditions: voie orale le 6e et le 7e jour, 400 mg/kg
Experimental: L'activité hypolipidémiante a été mise en évidence chez la souris rendue hypercholestérolémique par un régime riche en cholestérol et acide cholique pendant 7 jours. Ainsi l'administration par voie orale du COR37 49C le 6e et le 7e jour, entraine une diminution du cholestérol sérique de 22 % à la dose de 400 mg/kg.

[15] = molecular target: T2, H2 (Cavia porcellus, UniProt P47747); assay: anti-H2 antihistaminic activity in vitro, unstimulated guinea pig right atrium; type: cell-based; conditions: 25 microg/ml; 5 microg/ml d'histamine, oreillette droite de cobaye non stimulée; read-out: inhibition de l'effet chronotrope induit par l'histamine
T2 construct: sur l'oreillette droite de cobaye non stimulée; from tissue; host or cells: guinea pig right atrium, unstimulated
T2 sequence (P47747 whole entry): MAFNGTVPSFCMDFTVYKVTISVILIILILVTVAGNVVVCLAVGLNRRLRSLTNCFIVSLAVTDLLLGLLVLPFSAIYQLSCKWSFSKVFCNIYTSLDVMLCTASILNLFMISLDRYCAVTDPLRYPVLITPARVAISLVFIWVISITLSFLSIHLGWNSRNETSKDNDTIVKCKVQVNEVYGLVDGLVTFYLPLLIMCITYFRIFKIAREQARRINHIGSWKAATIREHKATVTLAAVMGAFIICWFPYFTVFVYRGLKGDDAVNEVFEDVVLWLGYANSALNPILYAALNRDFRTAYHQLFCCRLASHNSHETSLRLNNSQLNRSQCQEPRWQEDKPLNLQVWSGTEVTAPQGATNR
From the text: L'activité antihistaminique antiH2 a été mise en évidence in vitro. A la concentration de 25 microg/ml le COR37 49C inhibe à 50 % l'effet chronotrope induit par 5 microg/ml d'histamine sur l'oreillette droite de cobaye non stimulée.

[16] = souris, anesthésie chloroformique profonde, administration intrapéritonéale
[17] = oreillette isolée de cobaye stimulée électriquement, in vitro
[18] = voie intraveineuse 1 mn avant la perfusion d'aconitine, 10 mg/kg
[19] = voie orale 45 mn avant la perfusion d'aconitine, 100 mg/kg
[20] = voie intraveineuse 1 mn avant la perfusion d'aconitine, 5 mg/kg

CC(C)c1ccccc1NCC(O)CNC(C)(C)C (stereo not drawn) [COR37 05C, Dichlorhydrate de l'(isopropyl-2 anilino)-1 tertiobutylamino-3 propanol-2]
LD50 [1]: 56.6 mg/kg | mortality ([2]; 500 mg/kg): 0% | mortality ([2]; 750 mg/kg): 40% | mortality ([2]; 1000 mg/kg): 40% | mortality ([3]; 200 mg/kg): 0% | minimal effective dose [4, 16]: 25 mg/kg | IC30 [5, 17]: 6.22 µM | pourcentage d'augmentation de la quantité d'aconitine provoquant l'apparition d'extrasystoles (E) [6, 18]: 78% | pourcentage d'augmentation de la quantité d'aconitine provoquant l'apparition de morts (M) [6, 18]: 83% | pourcentage d'augmentation de la quantité d'aconitine provoquant l'apparition de tachycardies (T) [6, 18]: 87% | pourcentage d'augmentation de la quantité d'aconitine provoquant l'apparition d'extrasystoles (E) [6, 19]: 83% | pourcentage d'augmentation de la quantité d'aconitine provoquant l'apparition de fibrilloflutters (F) [6, 19]: 43% | pourcentage d'augmentation de la quantité d'aconitine provoquant l'apparition de morts (M) [6, 19]: 107% | pourcentage d'augmentation de la quantité d'aconitine provoquant l'apparition de tachycardies (T) [6, 19]: 99% | pourcentage d'animaux ne présentant pas de fibrilloflutters ([6]; 100 mg/kg): 70%

Cc1cccc(C(C)C)c1NCC(O)CNC(C)(C)C (stereo not drawn) [COR37 06C, Dichlorhydrate de l'(isopropyl-2 méthyl-6 anilino)-1 tertiobutylamino-3 propanol-2]
mortality ([2]; 100 mg/kg): 0% | mortality ([2]; 200 mg/kg): 10% | mortality ([2]; 250 mg/kg): 10% | mortality ([2]; 375 mg/kg): 90% | mortality ([2]; 500 mg/kg): 100% | LD50 ([2]; limits (261-332), read-out: DL50 (the source's name)): 294 mg/kg | mortality ([3]; 100 mg/kg): 0% | mortality ([3]; 200 mg/kg): 100% | minimal effective dose [4, 16]: 25 mg/kg | durée d'activité anesthésique locale [7]: 30 mn | IC30 [5, 17]: 7.26 µM | pourcentage d'augmentation de la quantité d'aconitine provoquant l'apparition d'extrasystoles (E) [6, 20]: 45% | pourcentage d'augmentation de la quantité d'aconitine provoquant l'apparition de morts (M) [6, 20]: 79% | pourcentage d'augmentation de la quantité d'aconitine provoquant l'apparition de tachycardies (T) [6, 20]: 39% | pourcentage d'augmentation de la quantité d'aconitine provoquant l'apparition d'extrasystoles (E) [6, 19]: 25% | pourcentage d'augmentation de la quantité d'aconitine provoquant l'apparition de fibrilloflutters (F) [6, 19]: 29% | pourcentage d'augmentation de la quantité d'aconitine provoquant l'apparition de morts (M) [6, 19]: 105% | pourcentage d'augmentation de la quantité d'aconitine provoquant l'apparition de tachycardies (T) [6, 19]: 32% | pourcentage d'animaux ne présentant pas de fibrilloflutters ([6]; 100 mg/kg): 60% | inhibition at 1 µg/mL [8]: 100%

Cc1ccc(NCC(O)CNC(C)(C)C)cc1 (stereo not drawn) [COR37 09C, Dichlorhydrate du (méthyl-4 anilino)-1 tertiobutylamino-3 propanol-2]
mortality ([2]; 300 mg/kg): 0% | mortality ([3]; 50 mg/kg): 0% | mortality ([3]; 100 mg/kg): 100% | inhibition at 100 µg/mL [9]: 79%

CC(C)c1ccccc1NCC(O)CN(C)C (stereo not drawn) [COR37 49C, Dichlorhydrate de l'(isopropyl-2 anilino)-l diméthylamino-3 propanol-2]
mortality ([2]; 300 mg/kg): 0% | inhibition at 25 µg/mL [10]: 80% | mortalité [11]: aucune mortalité | activité anticalcique [12]: inhibent l'augmentation de la force contractile | multiplication de l'excrétion urinaire de sodium [13]: 2,2 | diminution du cholestérol sérique [14]: 22% | inhibition at 25 µg/mL [15]: 50%

Cc1cccc(C(C)C)c1NCC(O)CN(C)C (stereo not drawn) [COR37 50C, Dichlorhydrate de l' (isopropyl-2 méthyl-6 anilino)-1 diméthylamino-3 propanol-2]
mortality ([2]; 300 mg/kg): 0% | mortalité [11]: aucune mortalité | activité anticalcique [12]: inhibent l'augmentation de la force contractile | inhibition at 100 µg/mL [9]: 80% | minimal effective dose [4, 16]: 100 mg/kg

Nc1ncnc2c1ncn2[C@@H]1O[C@H](CO)[C@@H](O)[C@H]1O [adénosine, reference compound]
inhibition at 100 µg/mL [9]: 64%

CCN(CC)CCOC(=O)c1ccc(N)cc1 [procaïne]
IC30 [5, 17]: 10 µM

CC(C)NCC(O)COc1cccc2ccccc12 (stereo not drawn) [propranolol, reference compound]
minimal effective dose [4]: 40 mg/kg | IC30 [5]: 4.5 µM

C=C[C@H]1C[N@@]2CC[C@H]1C[C@@H]2[C@@H](O)c1ccnc2ccc(OC)cc12 [quinidine, reference compound]
minimal effective dose [4]: 100 mg/kg | IC30 [5]: 4 µM

Source: patent EP0148096A1, “Diversely substituted 1-arylamino-3-amino-2-propanols, process for their preparation and their therapeutical application” (CORTIAL S.A., priority 1983, dated 1985)
